Experimental data from PubChem BioAssay (NCI).
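Step 1: Grow cells in 96-well plates. Step 2: Expose to compound for 48 hours at 5 concentrations. Step 3: Interpolate endpoints linearly; if unreached, use highest concentration. GI50: concentration for 50% inhibition of growth. TGI: concentration producing complete growth inhibition.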

How the values were obtained:
Assay in all cases: NCI-60 cell line screen, 48 h
[1] = test system: MALME-3M melanoma
[2] = test system: OVCAR-8 ovarian
[3] = test system: EKVX NSCLC
[4] = test system: SN12C renal
[5] = test system: TK-10 renal
[6] = test system: SW-620 colon
[7] = test system: NCI-H460 lung
[8] = test system: SF-268 CNS
[9] = test system: CAKI-1 renal
[10] = test system: MCF7 breast

SMILES	TGI [1]	TGI [2]	TGI [3]	TGI [4]	TGI [5]	TGI [6]	TGI [7]	TGI [8]	GI50 [2]	GI50 [3]	GI50 [4]	GI50 [5]	GI50 [7]	GI50 [8]	GI50 [9]	TGI [9]	GI50 [10]	TGI [10]	GI50 [6]	GI50 [1]
COC1(OC)CC2C=C(S(=O)(=O)c3ccccc3)C1N(Cc1ccccc1)C2=O (stereo not given)	> 100 µM	64.7 µM	> 100 µM	68.2 µM	66.4 µM	76.8 µM	> 100 µM	> 100 µM	–	–	–	–	–	–	–	–	–	–	–	–
COc1cc(/C=C/c2cc(/C=C/c3ccc(O)c(OC)c3)n(-c3c(C)cccc3C)c(=O)n2)ccc1O	–	8.16 µM	6.73 µM	> 100 µM	4.87 µM	–	4.37 µM	11.5 µM	1.51 µM	1.86 µM	1.66 µM	1.14 µM	0.683 µM	1.19 µM	0.859 µM	14.9 µM	–	–	–	–
CCOC(=O)N1CCc2cc(OC)c(OC)c3c2C1CC3=O (stereo not given)	> 100 µM	> 100 µM	–	> 100 µM	> 100 µM	> 100 µM	> 100 µM	> 100 µM	–	–	–	–	–	–	–	> 100 µM	–	–	–	–
Brc1ccc(-c2nnc(-c3nn(-c4ccccc4)c4nc5ccccc5nc34)o2)cc1	–	> 100 µM	> 100 µM	> 100 µM	> 100 µM	> 100 µM	> 100 µM	> 100 µM	–	–	–	–	–	–	–	> 100 µM	–	–	–	–
N#CC(C(=O)/C(=N\Nc1nc(=S)[nH]n1N)C(C#N)c1ccc(Cl)cc1)c1ccc(Cl)cc1 (stereo not given)	> 100 µM	> 100 µM	> 100 µM	> 100 µM	> 100 µM	> 100 µM	> 100 µM	> 100 µM	–	–	–	–	–	–	–	> 100 µM	–	–	–	–
CCN(CC)c1cc(/C=C/c2ccc(OC)c(OC)c2)nc2cc(F)c(F)cc12	–	80.8 µM	–	> 100 µM	8.75 µM	> 100 µM	> 100 µM	11.4 µM	5.54 µM	–	10.7 µM	2.99 µM	67.8 µM	3.15 µM	19 µM	> 100 µM	15.9 µM	> 100 µM	> 100 µM	–
CCn1cc(/C=C/C(C)c2cn(CC)c(=O)[nH]c2=O)c(=O)[nH]c1=O (stereo not given)	> 100 µM	> 100 µM	> 100 µM	> 100 µM	> 100 µM	> 100 µM	> 100 µM	> 100 µM	–	–	–	–	–	–	–	> 100 µM	–	–	–	–
CCCCCCCCCCCCCCCCCC1=NCCN1CS(=O)(=O)O	–	48.9 µM	25 µM	28.9 µM	35.4 µM	31.2 µM	8.39 µM	30.2 µM	20.4 µM	11.4 µM	12.8 µM	18.6 µM	3.24 µM	13.9 µM	9.3 µM	22.6 µM	13.4 µM	35.2 µM	7.19 µM	–
CCOC(=O)C(=O)Nc1ccc(C)cc1C	> 100 µM	> 100 µM	> 100 µM	> 100 µM	> 100 µM	> 100 µM	> 100 µM	> 100 µM	–	–	–	–	–	–	–	> 100 µM	–	–	–	–
CN(C)c1ccc(C(=C2C=CC(=[N+](C)C)C=C2)c2ccc(N(C)C)cc2)cc1 (tested in a mixture with another compound)	0.56 µM	–	6.45 µM	–	0.321 µM	1.35 µM	–	1.29 µM	–	0.0725 µM	–	0.0394 µM	–	–	0.276 µM	1.38 µM	–	–	0.0476 µM	0.127 µM
